Experimental data from ChEMBL document CHEMBL1201862, “PubChem BioAssay data set” (2004).
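Exposure lasted 48 hours, with cells grown in 96-well plates and compounds tested at five concentrations. At the GI50, growth is halved.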 Calls of active or inactive are those of the source. No stated cut-off is given here; in the data, active = GI50 up to about 1.1 µM and inactive = higher.

Experiments:
Experiment in all cases: DTP human tumour cell line panel, 48 h
CCRF-CEM = test system: CCRF-CEM
SR = test system: SR
SF-539 = test system: SF-539
786-0 = test system: 786-0
SK-OV-3 = test system: SK-OV-3
HT-29 = test system: HT-29
A549 = test system: A549
SN12C = test system: SN12C
SK-MEL-5 = test system: SK-MEL-5
UO-31 = test system: UO-31
NCI-H23 = test system: NCI-H23
DMS-114 = test system: DMS-114
COLO 205 = test system: COLO 205
A498 = test system: A498
DLD-1 = test system: DLD-1
RXF 393 = test system: RXF 393
EKVX = test system: EKVX
SNB-19 = test system: SNB-19
HOP-18 = test system: HOP-18
HCC 2998 = test system: HCC 2998
DMS-273 = test system: DMS-273
SNB-75 = test system: SNB-75
HCT-15 = test system: HCT-15
U-251 = test system: U-251
UACC-62 = test system: UACC-62
OVCAR-8 = test system: OVCAR-8
M14 = test system: M14
SW-620 = test system: SW-620
HCT-116 = test system: HCT-116
OVCAR-4 = test system: OVCAR-4
OVCAR-5 = test system: OVCAR-5
Malme-3M = test system: Malme-3M
LOX IMVI = test system: LOX IMVI
UACC-257 = test system: UACC-257
MOLT-4 = test system: MOLT-4
HOP-92 = test system: HOP-92
SNB-78 = test system: SNB-78
IGROV-1 = test system: IGROV-1
RPMI-8226 = test system: RPMI-8226
HL-60 = test system: HL-60
SK-MEL-28 = test system: SK-MEL-28
M19-MEL = test system: M19-MEL
TK-10 = test system: TK-10
KM12 = test system: KM12
NCI-H460 = test system: NCI-H460
OVCAR-3 = test system: OVCAR-3
HOP-62 = test system: HOP-62
SF-295 = test system: SF-295
K562 = test system: K562
LXFL 529 = test system: LXFL 529
ACHN = test system: ACHN
KM-20L2 = test system: KM-20L2
SF-268 = test system: SF-268
SK-MEL-2 = test system: SK-MEL-2
NCI-H226 = test system: NCI-H226
NCI-H522 = test system: NCI-H522
MCF7 = test system: MCF7
CAKI-1 = test system: CAKI-1
NCI/ADR-RES = test system: NCI/ADR-RES

Measured: GI50

Cc1c(C(=O)NCCO)[n+]([O-])c2cc(Cl)ccc2[n+]1[O-]
> 100 µM: HCT-15
inactive: CCRF-CEM > 100 µM | SR > 100 µM | SF-539 > 100 µM | 786-0 > 100 µM | SK-OV-3 86.9 µM | HT-29 > 100 µM | A549 > 100 µM | SN12C > 100 µM | SK-MEL-5 > 100 µM | UO-31 > 100 µM | NCI-H23 > 100 µM | DMS-114 > 100 µM | COLO 205 > 100 µM | A498 > 100 µM | DLD-1 > 100 µM | RXF 393 > 100 µM | EKVX > 100 µM | SNB-19 > 100 µM | HOP-18 > 100 µM | HCC 2998 > 100 µM | DMS-273 > 100 µM | SNB-75 48.5 µM | U-251 > 100 µM | UACC-62 > 100 µM | OVCAR-8 > 100 µM | M14 > 100 µM | SW-620 > 100 µM | HCT-116 > 100 µM | OVCAR-4 > 100 µM | OVCAR-5 > 100 µM | Malme-3M > 100 µM | LOX IMVI > 100 µM | UACC-257 > 100 µM | MOLT-4 > 100 µM | HOP-92 > 100 µM | SNB-78 > 100 µM | IGROV-1 > 100 µM | RPMI-8226 > 100 µM | HL-60 > 100 µM | SK-MEL-28 > 100 µM | M19-MEL > 100 µM | TK-10 > 100 µM | KM12 > 100 µM | NCI-H460 > 100 µM | OVCAR-3 > 100 µM | HOP-62 > 100 µM | SF-295 > 100 µM | K562 > 100 µM | LXFL 529 > 100 µM | ACHN > 100 µM | KM-20L2 > 100 µM | SF-268 > 100 µM

COc1cc(C2C(=O)C(Cl)N2Nc2nc(C)cc(O)n2)cc(OC)c1OC (stereo not given)
active: CCRF-CEM < 0.01 µM
inactive: SR 11.6 µM | SF-539 13.5 µM | HT-29 23.8 µM | A549 27.9 µM | SN12C 14.7 µM | SK-MEL-5 12.9 µM | UO-31 13.4 µM | NCI-H23 15.4 µM | DMS-114 8.67 µM | COLO 205 > 10 µM | RXF 393 12.3 µM | EKVX 33.3 µM | SNB-19 30.4 µM | HOP-18 2.67 µM | HCC 2998 12.9 µM | DMS-273 10.4 µM | SNB-75 2.33 µM | U-251 13.3 µM | UACC-62 > 10 µM | OVCAR-8 17.1 µM | M14 12.5 µM | SW-620 22.2 µM | SK-MEL-2 11.2 µM | HCT-116 16.2 µM | OVCAR-4 16.1 µM | OVCAR-5 33 µM | LOX IMVI 10.5 µM | UACC-257 22.5 µM | MOLT-4 10.6 µM | HOP-92 16.9 µM | SNB-78 12.4 µM | IGROV-1 10.1 µM | RPMI-8226 > 10 µM | HL-60 9.84 µM | NCI-H226 22.1 µM | SK-MEL-28 17 µM | M19-MEL 18.7 µM | TK-10 24.3 µM | KM12 19 µM | NCI-H460 9.35 µM | OVCAR-3 4.91 µM | HOP-62 7.21 µM | K562 9.55 µM | LXFL 529 12.9 µM | ACHN 11.1 µM | KM-20L2 22.6 µM | SF-268 7.01 µM
11.5 µM: HCT-15

CC(=O)[C@H]1CCC2[C@@H]3CC=C4C(O)C(OS(=O)(=O)O)CC[C@]4(C)C3CC[C@@]21C (stereo not given in full)
> 100 µM: HCT-15
inactive: CCRF-CEM > 100 µM | SF-539 > 100 µM | SK-OV-3 > 100 µM | HT-29 > 100 µM | A549 > 100 µM | SN12C > 100 µM | SK-MEL-5 > 100 µM | UO-31 > 100 µM | NCI-H23 > 100 µM | DMS-114 > 100 µM | COLO 205 > 100 µM | NCI-H522 > 100 µM | A498 > 100 µM | DLD-1 > 100 µM | RXF 393 > 100 µM | EKVX > 100 µM | SNB-19 > 100 µM | MCF7 > 100 µM | HOP-18 > 100 µM | HCC 2998 > 100 µM | DMS-273 > 100 µM | SNB-75 > 100 µM | U-251 > 100 µM | UACC-62 > 100 µM | OVCAR-8 > 100 µM | SW-620 > 100 µM | CAKI-1 > 100 µM | SK-MEL-2 > 100 µM | HCT-116 > 100 µM | OVCAR-4 > 100 µM | OVCAR-5 > 100 µM | Malme-3M > 100 µM | LOX IMVI > 100 µM | NCI/ADR-RES > 100 µM | MOLT-4 > 100 µM | HOP-92 > 100 µM | SNB-78 > 100 µM | IGROV-1 > 100 µM | RPMI-8226 > 100 µM | HL-60 > 31.6 µM | NCI-H226 > 100 µM | SK-MEL-28 > 100 µM | M19-MEL > 100 µM | KM12 > 100 µM | NCI-H460 > 100 µM | OVCAR-3 > 100 µM | HOP-62 > 100 µM | SF-295 > 100 µM | K562 > 100 µM | KM-20L2 > 100 µM | SF-268 > 100 µM

COc1ccccc1C(N)c1ccccc1 (stereo not given)
inactive: CCRF-CEM > 100 µM | SF-539 > 100 µM | 786-0 > 100 µM | SK-OV-3 > 100 µM | HT-29 > 100 µM | A549 > 100 µM | SN12C > 100 µM | SK-MEL-5 > 100 µM | UO-31 > 100 µM | NCI-H23 > 100 µM | DMS-114 > 100 µM | COLO 205 > 100 µM | NCI-H522 > 100 µM | A498 > 100 µM | DLD-1 > 100 µM | RXF 393 > 100 µM | EKVX > 100 µM | SNB-19 > 100 µM | HOP-18 > 100 µM | HCC 2998 > 100 µM | DMS-273 > 100 µM | SNB-75 95.9 µM | U-251 > 100 µM | UACC-62 > 100 µM | OVCAR-8 > 100 µM | M14 > 100 µM | SW-620 > 100 µM | HCT-116 > 100 µM | OVCAR-4 > 100 µM | OVCAR-5 > 100 µM | Malme-3M > 100 µM | LOX IMVI > 100 µM | UACC-257 > 100 µM | MOLT-4 > 100 µM | HOP-92 36 µM | SNB-78 > 100 µM | IGROV-1 > 100 µM | RPMI-8226 > 100 µM | HL-60 > 100 µM | NCI-H226 > 100 µM | SK-MEL-28 > 100 µM | M19-MEL > 100 µM | TK-10 > 100 µM | KM12 > 100 µM | NCI-H460 > 100 µM | OVCAR-3 > 100 µM | HOP-62 > 100 µM | SF-295 > 100 µM | K562 > 100 µM | LXFL 529 > 100 µM | ACHN > 100 µM | KM-20L2 > 100 µM | SF-268 > 100 µM
> 100 µM: HCT-15

COc1ccc2c(c[n+](C)c3c4cc5c(cc4ccc23)OCO5)c1OC [CHELERYTHRINE CHLORIDE]
inactive: SR 1.28 µM | DMS-114 2.18 µM | NCI-H522 2.14 µM | DLD-1 1.7 µM | HOP-18 1.8 µM | DMS-273 2.04 µM | CAKI-1 1.91 µM | SK-MEL-2 2.04 µM | SNB-78 2 µM | M19-MEL 1.6 µM | LXFL 529 1.73 µM | KM-20L2 1.74 µM
